Reference: US20100152129A1 (priority 2008, published 2010)
Where “and” joins values, the source holds several entries; their conditions need not be identical. Identical values can stand only once.

Key:
Panc-1 cells [1] = assay: Protein expression using high content cell imaging system, and efficacy score; format: cell-based; conditions: for Efficacy score: cumulative over proteins of Table 7
Panc-1 cells [2] = assay: CCK-8 based cytotoxicity assay; format: cell-based
Text: CCK-8 based cytotoxicity assay is a sensitive nonradioactive colorimetric assay for determining the number of viable cells in cell proliferation and cytotoxicity assays. WST-8 (2-(2-methoxy-4-nitrophenyl)-3-(4-nitrophenyl)-5-(2,4-disulfophenyl)-2H tetrazolium, monosodium salt) is bioreduced by cellular dehydrogenases to an orange formazan product that is soluble in tissue culture medium. The amount of formazan produced is directly proportional to the number of living cells.
Test System: The Panc-1 cell line was procured from ATCC (American Tissue type Culture Collection USA, catalog number: CRL-1469) and the frozen vial was stored in liquid nitrogen container.
Panc-1 cells were seeded at a density of 3000 cells/well in a 96 well plate and allowed to recover for 24 hrs in a CO2 incubator at 37° C. […] The final DMSO concentration was 0.5% in wells. Plates were incubated for 24, 48, and 72 hrs. At the end of incubation CCK-8 was added and kept at 37° C. for 3 hrs following which absorbance was measured at 450 nm.

[3] = preclinical studies; cited from earlier work
[4] = test system: xenograft models of colon cancer (HCT-116, SW-480) and non-small cell lung cancer (H-460); conditions: oral administration; SCID mice; cited from earlier work
[5] = 6 hours post treatment, control 3
[6] = 36 hours post treatment, control 98

## CN1CC[C@@H](c2c(O)cc(O)c3c(=O)cc(-c4ccc(C(F)(F)F)cc4Cl)oc23)[C@@H]1CO.Cl (relative stereo) [P1446A]
Panc-1 cells [1]; 6 hours post treatment, control 1
  PTN protein expression: 3 fluorescence units
Panc-1 cells [1]; [5]
  GADD45-α protein expression: 3 fluorescence units
  ID1 protein expression: 38 fluorescence units
Panc-1 cells [1]; 6 hours post treatment, control 6
  P27 protein expression: 4 fluorescence units
Panc-1 cells [1]; 6 hours post treatment, control 7
  CDC25B protein expression: 4 fluorescence units
Panc-1 cells [1]; 6 hours post treatment, control 8
  CDKN2A protein expression: 49 fluorescence units
Panc-1 cells [1]; 6 hours post treatment, control 74
  CCND1 protein expression: 87 fluorescence units
Panc-1 cells [1]; 6 hours post treatment, control 80
  GAPDH protein expression: 78 fluorescence units
Panc-1 cells [1]; 6 hours post treatment, control 147
  CASP3 protein expression: 102 fluorescence units
Panc-1 cells [1]; 6 hours post treatment, control 501
  MMP-1 protein expression: 235 fluorescence units
Panc-1 cells [1]; 6 hours post treatment, control 627
  COX15 protein expression: 628 fluorescence units
Panc-1 cells [1]; 6 hours post treatment, control 635
  COX2 protein expression: 457 fluorescence units
Panc-1 cells [1]; 6 hours post treatment, control 819
  BAX protein expression: 421 fluorescence units
Panc-1 cells [1]; 6 hours post treatment, control 829
  VEGF protein expression: 235 fluorescence units
Panc-1 cells [1]; 6 hours post treatment, control 830
  BCL2 protein expression: 587 fluorescence units
Panc-1 cells [1]; 6 hours post treatment, control 1240
  pRB protein expression: 1489 fluorescence units
Panc-1 cells [1]; 6 hours
  Efficacy score: 2.1
Panc-1 cells [1]; 16 hours post treatment, control 13
  GADD45-α protein expression: 46 fluorescence units
Panc-1 cells [1]; 16 hours post treatment, control 54
  CDC25B protein expression: 45 fluorescence units
Panc-1 cells [1]; 16 hours post treatment, control 64
  CDKN2A protein expression: 55 fluorescence units
Panc-1 cells [1]; 16 hours post treatment, control 67
  P27 protein expression: 37 fluorescence units
Panc-1 cells [1]; 16 hours post treatment, control 76
  PTN protein expression: 34 fluorescence units
Panc-1 cells [1]; 16 hours post treatment, control 77
  ID1 protein expression: 67 fluorescence units
Panc-1 cells [1]; 16 hours post treatment, control 90
  CCND1 protein expression: 85 fluorescence units
Panc-1 cells [1]; 16 hours post treatment, control 100
  GAPDH protein expression: 100 fluorescence units
Panc-1 cells [1]; 16 hours post treatment, control 202
  CASP3 protein expression: 1157 fluorescence units
Panc-1 cells [1]; 16 hours post treatment, control 579
  VEGF protein expression: 420 fluorescence units
Panc-1 cells [1]; 16 hours post treatment, control 644
  BCL2 protein expression: 546 fluorescence units
Panc-1 cells [1]; 16 hours post treatment, control 711
  BAX protein expression: 688 fluorescence units
Panc-1 cells [1]; 16 hours post treatment, control 718
  COX15 protein expression: 896 fluorescence units
Panc-1 cells [1]; 16 hours post treatment, control 929
  MMP-1 protein expression: 420 fluorescence units
Panc-1 cells [1]; 16 hours post treatment, control 1109
  COX2 protein expression: 1063 fluorescence units
Panc-1 cells [1]; 16 hours post treatment, control 2583
  pRB protein expression: 1721 fluorescence units
Panc-1 cells [1]; 16 hours
  Efficacy score: 10.3
Panc-1 cells [1]; 36 hours post treatment, control 19
  GADD45-α protein expression: 43 fluorescence units
Panc-1 cells [1]; 36 hours post treatment, control 86
  COX2 protein expression: 43 fluorescence units
Panc-1 cells [1]; 36 hours post treatment, control 96
  P27 protein expression: 65 fluorescence units
Panc-1 cells [1]; [6]
  CCND1 protein expression: 55 fluorescence units
  CDC25B protein expression: 70 fluorescence units
  GAPDH protein expression: 63 fluorescence units
  ID1 protein expression: 83 fluorescence units
Panc-1 cells [1]; 36 hours post treatment, control 100
  PTN protein expression: 99 fluorescence units
Panc-1 cells [1]; 36 hours post treatment, control 265
  CASP3 protein expression: 1220 fluorescence units
Panc-1 cells [1]; 36 hours post treatment, control 715
  BAX protein expression: 1670 fluorescence units
Panc-1 cells [1]; 36 hours post treatment, control 722
  COX15 protein expression: 1878 fluorescence units
Panc-1 cells [1]; 36 hours post treatment, control 1093
  VEGF protein expression: 1195 fluorescence units
Panc-1 cells [1]; 36 hours post treatment, control 1316
  MMP-1 protein expression: 1195 fluorescence units
Panc-1 cells [1]; 36 hours post treatment, control 1410
  BCL2 protein expression: 1330 fluorescence units
Panc-1 cells [1]; 36 hours post treatment, control 1441
  CDKN2A protein expression: 1395 fluorescence units
Panc-1 cells [1]; 36 hours post treatment, control 2840
  pRB protein expression: 1978 fluorescence units
Panc-1 cells [1]; 36 hours
  Efficacy score: 7.6
Panc-1 cells [2]; P1446A 30 nM, 24 hrs
  % Cytotoxicity: 29.825%
Panc-1 cells [2]; P1446A 30 nM, 72 hrs
  % Cytotoxicity: 23.33%
Panc-1 cells [2]; P1446A 100 nM, 24 hrs
  % Cytotoxicity: 26.525%
Panc-1 cells [2]; P1446A 100 nM, 48 hrs
  % Cytotoxicity: 24.596%
Panc-1 cells [2]; P1446A 300 nM, 24 hrs
  % Cytotoxicity: 34.36%
Panc-1 cells [2]; P1446A 300 nM, 48 hrs
  % Cytotoxicity: 28.636%
Panc-1 cells [2]; P1446A 300 nM, 72 hrs, hydrochloride
  % Cytotoxicity: 31.05% and 31.075%
[3]
  oral bioavailability: good oral bioavailability
[4]
  tumor growth inhibition: significant tumor growth inhibition
